# Data as given in patent US8129527B2, “Analogs of dehydrophenylahistins and their therapeutic use” (Nereus Pharmacuticals, Inc., priority 2006, dated 2012).
# Where two headings read alike, the source gives them in different places.
# Columns and labels:
# [1] = test system: Aspergillus fumigatus; experiment: Antifungal susceptibility testing, broth dilution (MIC/MFC); type: cell-based; details: Aspergillus fumigatus, read-out: MIC
# Method: (§1) Specifically, disclosed compounds were evaluated alongside commercially available microtubulin inhibitors as well as recognized antifungal agents.
# (§2) Microorganisms against which these compounds were tested included: Candida albicans, Candida glabrata, Aspergillus fumigatus, Trichophyton rubrum, Trichophyton mentagrophytes, Epidermophyton floccosum. With the exception of Candida glabrata (one isolate), two isolates of each species were tested.
# (§3) The minimum lethal concentration (MLC) was determined by plating […] from the MIC concentration and each concentration above the MIC. […] When a MIC was obtained, a minimum fungicidal concentration (MFC) was determined to assess the fungistatic/fungicidal nature of the compound.
# [2] = test system: Trichophyton rubrum; experiment: as above; type: cell-based; details: for MIC: Trichophyton rubrum
# Method: as §1, §2, §3
# [3] = test system: Epidermophyton floccosum; experiment: as above; type: cell-based
# Method: (§4) Specifically, disclosed compounds were evaluated alongside commercially available microtubulin inhibitors as well as recognized antifungal agents. […].
# as §2
# (§5) Drug concentrations were 0.03-16 μg/ml for the investigational compounds, 0.015-8 μg/ml for itraconazole and griseofulvin.
# as §3, with “compound. […] The compound is scored as fungistatic if the cells are able to resume growth and fungicidal if no regrowth is possible because the compound had killed the organisms.” for “compound.”
# [4] = test system: Trichophyton mentagrophytes; experiment: as above; type: cell-based; details: for MIC: Trichophyton mentagrophytes
# Method: as §4, §2, §5
# as §3, with “compound. […] The compound is scored as fungistatic if the cells are able to resume growth and fungicidal if no regrowth is possible because the compound had killed the organisms.” for “compound.”
# [5] = test system: HT-29 human colon cells; experiment: Tumor cytotoxicity assay, resazurin fluorescence, 48 h (Example 6); type: cell-based; details: Homo sapiens
# [6] = test system: P388 murine leukemia cells; experiment: Cytotoxic effect in P388 cells; type: cell-based; details: Mus musculus, P388, read-out: IC50 (nM) P-388; Table 2
# Source text: The cytotoxic effects of phenylahistin, dehydrophenylahistin and various derivatives of dehydrophenylahistin were examined in P388 murine leukemia cells, HT-29 human colon cells, and PC-3 prostatic adenocarcinoma cells.
# [7] = test system: Candida albicans; experiment: Antifungal susceptibility testing, broth dilution (MIC/MFC); type: cell-based; details: Candida albicans; C. albicans 90028; read-out: MIC
# Method: as §1, §2, §3
# [8] = test system: Candida glabrata; experiment: as above; type: cell-based; details: Nakaseomyces glabratus; C. glabrata; read-out: MIC
# Method: as §1, §2, §3
# [9] = test system: PC-3 prostatic adenocarcinoma cells; experiment: Tumor cytotoxicity assay, resazurin fluorescence, 48 h (Example 6); type: cell-based, human; details: Homo sapiens, read-out: EC50 (nM) PC-3
# Method: 10× concentrated serial dilutions of the two compounds were prepared in appropriate culture medium for final concentrations ranging from 2.0×10^−5 M to 2.0×10^−10 M. Ten μl volumes of the 10× serial dilutions were added to the test wells in triplicate and the plates returned to the incubator for 48 hours.
# Following 48 hours of drug exposure 10 μl of 0.2 mg/ml resazurin (obtained from Sigma-Aldrich Chemical Co.) in Mg^2+, Ca^2+ free PBS was added to each well and the plates were returned to the incubator for 3-4 hours. […] Resazurin dye without cells was used to determine the background, which was subtracted from the data for all experimental wells. The data were analyzed using Prism software (GraphPad Software).
# PC-3, a human prostate adenocarcinoma, was maintained in F12K complete medium (F12K medium supplemented with 10% FBS; 2 mM Glutamine; 1% HEPES; and Pen/Strep at 100 IU/ml and 100 µg/ml, respectively).
MIC ([1]; A. fumigatus isolate #2),MIC ([2]; T. rubrum isolate #1),MIC ([2]; T. rubrum isolate #2),MIC ([3]; E. floccosum isolate #1),MIC ([3]; E. floccosum isolate #2),MIC ([4]; T. mentagrophytes isolate #1),MIC ([4]; T. mentagrophytes isolate #2),MIC ([1]; A. fumigatus isolate #1),MIC [7],MIC [8],SMILES,"EC50 ([5]; HT-29, Table 2, read-out: EC50 (nM) HT-29)",IC50 [6],antifungal potency versus T. rubrum ([2]; in words),antifungal potency versus the sensitive T. mentagrophytes isolate ([4]; in words),"EC50 ([5]; HT-29, read-out: EC50 (nM) HT29, Table 1)",EC50 [9]
0.5 µg/mL,0.5 µg/mL,< 0.015 µg/mL,2 µg/mL,4 µg/mL,1 µg/mL,2 µg/mL,,,,"COC1=CC(=O)C[C@@H](C)[C@]12Oc1c(Cl)c(OC)cc(OC)c1C2=O [griseofulvin, Griseofulvin, reference compound]",,,,,,
> 16 µg/mL,,,,,,,> 16 µg/mL,> 70 µg/mL,> 70 µg/mL,"C=CC(C)(C)c1[nH]cnc1/C=C1\NC(=O)[C@H](Cc2ccccc2)NC1=O [(−)-Phenylahistin, reference compound]",1600 nM,833 ± 153 nM,significantly less potent than the other compounds,weaker but more comparable to the others,,
,,,,,,,,,,CC(C)(C)c1[nH]cnc1/C=c1\[nH]c(=O)/c(=C/c2ccccc2)[nH]c1=O [tBu-ΔPLH],,,,,13 nM,1 nM
